Assay [1] has as its system INS-1E cells. The assay is described as follows: Cellular ATP levels (CellTiter-Glo) in cytokine-treated INS-1E cells; suppression of cytokine-induced beta-cell apoptosis. The conditions noted are these: Rattus norvegicus. In kind it is cell-based, rat. On the procedure:
The compounds were analyzed for activity utilizing methods described in Chou et al. (ACS Chem. Biol. 2010 Aug. 20; 5(8):729-34).
INS-1E cells were seeded at 10,000 cells per well using a Multidrop Combi (Thermo Labsystems) in white optical 384-well plates (Corning Life Sciences). After overnight incubation, medium was removed and 50 μL of RPMI containing 1% FBS and a combination of cytokines (10 ng mL-^1 IL-1β, 50 ng mL^−1 IFN-γ, 25 ngmL^−1 TNF-α) was added to every well. Using libraries of compounds dissolved in DMSO and a CyBi-Well pin-transfer robot (CyBio Corp.), 0.1 μL of each compound was added. After 48 h, medium was removed and 20 μL of CellTiter-Glo reagent was added. Luminescence was measured after 10 min of incubation using an EnVision plate reader (PerkinElmer).
Instrument output files were processed using Pipeline Pilot (Accelrys) and input to MATLAB (The MathWorks) for data normalization. Compound performance scores relative to a distribution of mock-treated (DMSO) wells were calculated using a revised version of the scoring system underlying ChemBank. (Seiler et al., Nucleic Acids Res. 36, D351-359, 2008). The role of replicate treatments was further developed as follows: first, mock-treatment distributions were modeled using all mock-treated wells measured on a single day, regardless of their nominal replicate; second, per-compound scores weighted each in-plate background-subtracted measurement by the uncertainty in that measurement, using the method of maximum likelihood. The uncertainty in a single background-subtracted measurement was estimated using the number of mock-treated wells on the plate and, as a measure of the assay noise, the standard deviation of the per-day mock-treatment distribution. The signal, a weighted average of differences, was scaled by the noise, the standard deviation of the mock treatment distribution.
INS-1E cells were seeded at 10,000 cells/well using a Multidrop Combi (Thermo Labsystems) in white optical 384-well plates (Corning Life Sciences). After overnight incubation, medium was removed and 50 μL RPMI containing the treated compound, 1% FBS and a combination of cytokines (10 ng/mL IL-1β, 50 ng/mL IFN-γ, 25 ng/mL TNF-α) was added to every well. After incubation for 48 hr, medium was removed and 20 μL CellTiter-Glo reagent was added. Luminescence was measured after 10-min incubation using an EnVision plate reader (PerkinElmer).

Assay [2] concerns INS-1E cells. The assay is described as follows: Caspase-3 activity assay (Caspase-Glo 3/7) in cytokine-treated INS-1E cells. In kind it is cell-based, rat. The conditions noted are these: cytokines. The protocol:
INS-1E cells were seeded at 5,000 cells per well in white optical 384-well plates and treated as described for highthroughput screening. After treatment with cytokines and compounds for 48 h, medium was removed and 20 μL Caspase-Glo 3/7 reagent was added. Luminescence was measured after 2 h of incubation using an EnVision plate reader.

As a reminder, the EC50 is the concentration that produces a half-maximal response. In general, IC50 refers to the concentration needed to halve the response being measured.

Regarding `C[C@@H]1CN([C@@H](C)CO)C(=O)c2cccc(NC(=O)Nc3cccc4ccccc34)c2O[C@H]1CN(C)S(=O)(=O)c1ccc2c(c1)OCCO2` [Compound 21A, N-(((2R,3R)-5-((S)-1-Hydroxypropan-2-yl)-3-methyl-10-(3-(naphthalen-1-yl)ureido)-6-oxo-3,4,5,6-tetrahydro-2H-benzo[b][1,5]oxazocin-2-yl)methyl)-N-methyl-2,3-dihydrobenzo-[b][1,4]dioxine-6-sulfonamide], the EC50 was 770 nM in the assay on INS-1E cells [1] (INS-1E, assay not named, read-out: EC50); more than 100 nM in the assay with INS-1E cells [1] (INS-1E cells, cytokines IL-1β, IFN-γ, TNF-α, 48 h, CellTiter-Glo, read-out: CTG EC50 in HTS); more than 10000 nM in the assay with INS-1E cells [2] (Rattus norvegicus, 48 h, Caspase-Glo 3/7). Further, the IC50 in the assay on INS-1E cells [1] (INS-1E, read-out: IC50, inhibition of cytokine-induced beta cell apoptosis) turned out to be 770 nM. In addition, the “caspase-3/7 activity in INS-1E cells” value with INS-1E cells [2] was “decreased caspase-3/7 activity”.

The record behind these values is patent US8741905B2, “Compounds and methods for treating autoimmune diseases” (The Broad Institute, Inc., priority 2010, dated 2014).
